The source made the active and inactive calls. No cut-off for these calls is given here.
Experiments:
Blood [1] = assay: Antiinflammatory activity in human whole blood assessed as inhibition of LPS-induced PGE2 production at 1 to 100 uM after 18 hrs by ELISA; assay type: functional, tissue-based
Rattus norvegicus [2] = assay: Antiinflammatory activity in Wistar rat assessed as reduction in carrageenan-induced paw edema at 100 mg/kg, ip after 0.5 to 4 hrs; assay type: functional, organism-based; set-up: dose 100 mg/kg
Rattus norvegicus [3] = assay: Toxicity in Wistar rat assessed as reduction in PGE2 level in gastric mucosa at 30 mg/kg, po; assay type: organism-based; set-up: dose 30 mg/kg, route oral; settings: in vivo
[4] = Induction of NO release in phosphate buffer containing L-cysteine at pH 7.4 assessed as nitrite level by Griess assay; assay type: physicochemical
Blood [5] = assay: Antiinflammatory activity in human whole blood assessed as inhibition of LPS-induced production at 0.01 to 100 uM after 18 hrs by ELISA

- Activity [4]: 372 nM
Compound: O=C(Cc1ccccc1Nc1c(Cl)cccc1Cl)OCc1ccc2no[n+]([O-])c2c1
- Activity (Blood [1]): Active
- Activity (Rattus norvegicus [2]): Active
- Activity (Rattus norvegicus [3]): Toxic
- Activity (Blood [5]): Active

— ChEMBL document CHEMBL1165894, “Synthesis and pharmacological characterization of a novel nitric oxide-releasing diclofenac derivative containing a benzofuroxan moiety” (Eur J Med Chem, 2010)
